From the supplement of paper PMC10307832

Legend:
Test in all cases: relative viability (nuclei count vs DMSO), 5 days (fraction); higher = more cells survive
[1] = system: 201T
Method in brief: (§1)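 After 5 days of treatment, lung cancer cells in 1536-well plates were fixed and stained in a single step (final 0.05% Triton X-100, 1% formaldehyde, 1 ug/ml Hoechst) and their nuclei counted on 4× images. Treatment had been applied by pin tool the day after seeding as one drug alone or as a fixed anchor-drug dose with five library-drug doses (not always all listed) in √10 steps. Relative viability is the nuclei count of treated wells divided by that of vehicle wells, and values are medians of duplicate plates.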

[2] = system: COR-L 105
Method in brief: as §1

[3] = system: ChaGo-K-1
Method in brief: as §1

[4] = system: EPLC-272H
Method in brief: as §1

[5] = system: H3255
Method in brief: as §1

[6] = system: HCC-78
Method in brief: as §1

[7] = system: HCC-827
Method in brief: as §1

[8] = system: LC-2-ad
Method in brief: as §1

[9] = system: LCLC-97TM1
Method in brief: as §1

[10] = system: NCI-H1666
Method in brief: as §1

[11] = system: NCI-H1915
Method in brief: as §1

[12] = system: NCI-H2087
Method in brief: as §1

[13] = system: NCI-H2126
Method in brief: as §1

[14] = system: NCI-H2347
Method in brief: as §1

[15] = system: NCI-H23
Method in brief: as §1

[16] = system: NCI-H2405
Method in brief: as §1

[17] = system: NCI-H322M
Method in brief: as §1

[18] = system: NCI-H520
Method in brief: as §1

[19] = system: NCI-H647
Method in brief: as §1

[20] = system: NCI-H650
Method in brief: as §1

[21] = system: NCI-H661
Method in brief: as §1

[22] = system: PC-14
Method in brief: as §1

[23] = system: RERF-LC-KJ
Method in brief: as §1

Structure (SMILES): O=C(O)c1ccc(-c2c[nH]c3ncc(-c4ccccc4)cc23)cc1C1CCCC1 + N=C(N)NC(=N)NCCc1ccccc1 [Phenformin] (partner 250 µM)
- relative viability ([1]; first compound 0.04 µM): 0.477
- relative viability ([1]; first compound 0.1265 µM): 0.45
- relative viability ([1]; first compound 0.4 µM): 0.456
- relative viability ([1]; first compound 1.265 µM): 0.437
- relative viability ([2]; first compound 0.04 µM): 0.485
- relative viability ([2]; first compound 0.1265 µM): 0.492
- relative viability ([2]; first compound 0.4 µM): 0.489
- relative viability ([2]; first compound 1.265 µM): 0.446
- relative viability ([3]; first compound 0.04 µM): 0.477
- relative viability ([3]; first compound 0.1265 µM): 0.541
- relative viability ([3]; first compound 0.4 µM): 0.452
- relative viability ([3]; first compound 1.265 µM): 0.507
- relative viability ([4]; first compound 0.04 µM): 0.357
- relative viability ([4]; first compound 0.1265 µM): 0.295
- relative viability ([4]; first compound 0.4 µM): 0.356
- relative viability ([4]; first compound 1.265 µM): 0.328
- relative viability ([5]; first compound 0.04 µM): 0.343
- relative viability ([5]; first compound 0.1265 µM): 0.354
- relative viability ([5]; first compound 0.4 µM): 0.39
- relative viability ([5]; first compound 1.265 µM): 0.372
- relative viability ([6]; first compound 0.1265 µM): 0.907
- relative viability ([6]; first compound 0.4 µM): 0.828
- relative viability ([6]; first compound 1.265 µM): 0.683
- relative viability ([7]; first compound 0.04 µM): 0.406
- relative viability ([7]; first compound 0.1265 µM): 0.397
- relative viability ([7]; first compound 0.4 µM): 0.43
- relative viability ([7]; first compound 1.265 µM): 0.386
- relative viability ([8]; first compound 0.04 µM): 0.584
- relative viability ([8]; first compound 0.1265 µM): 0.634
- relative viability ([8]; first compound 0.4 µM): 0.536
- relative viability ([8]; first compound 1.265 µM): 0.494
- relative viability ([9]; first compound 0.04 µM): 0.475
- relative viability ([9]; first compound 0.1265 µM): 0.435
- relative viability ([9]; first compound 0.4 µM): 0.5
- relative viability ([9]; first compound 1.265 µM): 0.399
- relative viability ([10]; first compound 0.04 µM): 0.579
- relative viability ([10]; first compound 0.1265 µM): 0.552
- relative viability ([10]; first compound 0.4 µM): 0.508
- relative viability ([10]; first compound 1.265 µM): 0.363
- relative viability ([11]; first compound 0.04 µM): 0.376
- relative viability ([11]; first compound 0.1265 µM): 0.362
- relative viability ([11]; first compound 0.4 µM): 0.34
- relative viability ([11]; first compound 1.265 µM): 0.295
- relative viability ([12]; first compound 0.04 µM): 0.472
- relative viability ([12]; first compound 0.1265 µM): 0.461
- relative viability ([12]; first compound 0.4 µM): 0.397
- relative viability ([12]; first compound 1.265 µM): 0.393
- relative viability ([13]; first compound 0.04 µM): 0.571
- relative viability ([13]; first compound 0.1265 µM): 0.581
- relative viability ([13]; first compound 0.4 µM): 0.505
- relative viability ([13]; first compound 1.265 µM): 0.441
- relative viability ([14]; first compound 0.04 µM): 0.396
- relative viability ([14]; first compound 0.1265 µM): 0.475
- relative viability ([14]; first compound 0.4 µM): 0.484
- relative viability ([14]; first compound 1.265 µM): 0.405
- relative viability ([15]; first compound 0.04 µM): 0.776
- relative viability ([15]; first compound 0.1265 µM): 0.902
- relative viability ([15]; first compound 0.4 µM): 0.814
- relative viability ([15]; first compound 1.265 µM): 0.613
- relative viability ([16]; first compound 0.04 µM): 0.445
- relative viability ([16]; first compound 0.1265 µM): 0.442
- relative viability ([16]; first compound 0.4 µM): 0.382
- relative viability ([16]; first compound 1.265 µM): 0.383
- relative viability ([17]; first compound 0.04 µM): 0.772
- relative viability ([17]; first compound 0.1265 µM): 0.832
- relative viability ([17]; first compound 0.4 µM): 0.782
- relative viability ([17]; first compound 1.265 µM): 0.63
- relative viability ([18]; first compound 0.04 µM): 0.583
- relative viability ([18]; first compound 0.1265 µM): 0.82
- relative viability ([18]; first compound 0.4 µM): 0.585
- relative viability ([18]; first compound 1.265 µM): 0.594
- relative viability ([19]; first compound 0.04 µM): 0.611
- relative viability ([19]; first compound 0.1265 µM): 0.598
- relative viability ([19]; first compound 0.4 µM): 0.478
- relative viability ([19]; first compound 1.265 µM): 0.38
- relative viability ([20]; first compound 0.04 µM): 0.42
- relative viability ([20]; first compound 0.1265 µM): 0.494
- relative viability ([20]; first compound 0.4 µM): 0.448
- relative viability ([20]; first compound 1.265 µM): 0.399
- relative viability ([21]; first compound 0.04 µM): 0.292
- relative viability ([21]; first compound 0.4 µM): 0.285
- relative viability ([21]; first compound 1.265 µM): 0.278
- relative viability ([22]; first compound 0.04 µM): 0.588
- relative viability ([22]; first compound 0.1265 µM): 0.678
- relative viability ([22]; first compound 0.4 µM): 0.548
- relative viability ([22]; first compound 1.265 µM): 0.604
- relative viability ([23]; first compound 0.04 µM): 0.432
- relative viability ([23]; first compound 0.1265 µM): 0.456
- relative viability ([23]; first compound 0.4 µM): 0.389
- relative viability ([23]; first compound 1.265 µM): 0.369
